For this test, the target named is T1, P2X7 (UniProt Q99572).
T1 sequence (Q99572 1-595): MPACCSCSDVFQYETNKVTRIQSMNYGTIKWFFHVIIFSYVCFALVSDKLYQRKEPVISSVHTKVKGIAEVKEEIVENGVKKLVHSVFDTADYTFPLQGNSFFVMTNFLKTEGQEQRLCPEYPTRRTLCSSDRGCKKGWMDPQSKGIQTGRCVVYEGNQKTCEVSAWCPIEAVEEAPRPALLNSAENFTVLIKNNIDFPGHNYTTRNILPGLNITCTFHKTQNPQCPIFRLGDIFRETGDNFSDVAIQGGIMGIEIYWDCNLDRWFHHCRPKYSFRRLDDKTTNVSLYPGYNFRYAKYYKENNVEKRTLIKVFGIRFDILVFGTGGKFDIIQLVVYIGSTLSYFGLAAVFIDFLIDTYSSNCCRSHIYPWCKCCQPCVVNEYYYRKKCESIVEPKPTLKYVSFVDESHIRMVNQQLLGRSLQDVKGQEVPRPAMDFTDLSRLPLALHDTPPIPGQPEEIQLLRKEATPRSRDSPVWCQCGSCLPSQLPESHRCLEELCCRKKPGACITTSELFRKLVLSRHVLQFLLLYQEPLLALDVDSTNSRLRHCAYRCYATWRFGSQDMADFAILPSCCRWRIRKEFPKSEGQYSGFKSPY
The test can be described thus: P2X7 activity of Table 1. In kind it is cell-based. The following applies: pIC50 values for P2X7. The procedure, abridged: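 FLIPR calcium flux with fluo-3 in 1321N1 cells expressing human P2X7 and HEK293 cells expressing rat P2X7, in HBSS with 2 mM CaCl2 and 2.5 mM probenecid. Antagonist pre-incubated 20 min at room temperature, then BzATP added (100 μM human, 5 μM rat). Peak response over 5 min normalised to 5 μM ionomycin.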

From patent US8163929B2, “Dihydropyridone amides as P2X7 modulators” (Roche Palo Alto LLC, priority 2008, dated 2012) come the findings set out here.

`Cc1ccc(-c2ccc(=O)n(CCO)n2)cc1NC(=O)C1=CN(C)C(=O)C[C@H]1c1ccc(F)cc1` [Compound 134, (S)-4-(4-Fluoro-phenyl)-1-methyl-6-oxo-1,4,5,6-tetrahydro-pyridine-3-carboxylic acid {5-[1-(2-hydroxy-ethyl)-6-oxo-1,6-dihydro-pyridazin-3-yl]-2-methyl-phenyl}-amide] gave a pIC50 of 6.42.

Regarding `Cc1cnn(-c2ccc(C)c(NC(=O)C3=CNC(=O)C[C@H]3c3ccc(F)cc3)c2)c(=O)c1` [Compound 135, (S)-4-(4-Fluoro-phenyl)-6-oxo-1,4,5,6-tetrahydro-pyridine-3-carboxylic acid [2-methyl-5-(4-methyl-6-oxo-6H-pyridazin-1-yl)-phenyl]-amide], the pIC50 stood at 7.655.

For the compound `Cc1cnn(-c2ccc(C)c(NC(=O)C3=CN(C)C(=O)C[C@H]3c3ccc(F)cc3)c2)c(=O)c1` [Compound 136, (S)-4-(4-Fluoro-phenyl)-1-methyl-6-oxo-1,4,5,6-tetrahydro-pyridine-3-carboxylic acid [2-methyl-5-(4-methyl-6-oxo-6H-pyridazin-1-yl)-phenyl]-amide], the negative logarithm of the IC50 (pIC50) worked out at 7.515.

Regarding `Cc1cc(-c2ccc(F)c(NC(=O)C3=CN(C)C(=O)C[C@H]3c3ccc(F)cc3)c2)n[nH]1` [Compound 137, (S)-4-(4-Fluoro-phenyl)-1-methyl-6-oxo-1,4,5,6-tetrahydro-pyridine-3-carboxylic acid [2-fluoro-5-(5-methyl-1H-pyrazin-3-yl)-phenyl]-amide], the pIC50 is on record as 6.39.

The compound `Cc1cc(F)c(-c2cccn(C)c2=O)cc1NC(=O)C1=CN(C)C(=O)C[C@H]1c1ccc(F)cc1` [Compound 139, (S)-4-(4-Fluoro-phenyl)-1-methyl-6-oxo-1,4,5,6-tetrahydro-pyridine-3-carboxylic acid [4-fluoro-2-methyl-5-(1-methyl-2-oxo-1,2-dihydro-pyridin-3-yl)-phenyl]-amide] had a pIC50 of 7.83.

In the case of `Cc1ccc(=O)n(-c2ccc(C)c(NC(=O)C3=CN(C)C(=O)C[C@H]3c3ccc(F)cc3)c2)c1` [Compound 140, (S)-4-(4-Fluoro-phenyl)-1-methyl-6-oxo-1,4,5,6-tetrahydro-pyridine-3-carboxylic acid [2-methyl-5-(5-methyl-2-oxo-2H-pyridin-1-yl)-phenyl]-amide], the pIC50 came out at 7.18.

In turn, `CN1C=C(C(=O)Nc2cc(-c3ccnn(C)c3=O)ccc2F)[C@H](c2ccc(F)cc2)CC1=O` [Compound 141, (S)-4-(4-Fluoro-phenyl)-1-methyl-6-oxo-1,4,5,6-tetrahydro-pyridine-3-carboxylic acid [2-fluoro-5-(2-methyl-3-oxo-2,3-dihydro-pyridazin-4-yl)-phenyl]-amide] came in with a negative logarithm of the IC50 (pIC50) of 7.36.

`Cn1nccc(-c2ccc(F)c(NC(=O)C3=CNC(=O)C[C@H]3c3ccc(F)cc3)c2)c1=O` [Compound 142, (S)-4-(4-Fluoro-phenyl)-6-oxo-1,4,5,6-tetrahydro-pyridine-3-carboxylic acid [2-fluoro-5-(2-methyl-3-oxo-2,3-dihydro-pyridazin-4-yl)-phenyl]-amide] gave a pIC50 of 8.2.

With `Cc1cnn(-c2cc(NC(=O)C3=CNC(=O)C[C@H]3c3ccc(F)cc3)c(C)cc2F)c(=O)c1` [Compound 143, (S)-4-(4-Fluoro-phenyl)-6-oxo-1,4,5,6-tetrahydro-pyridine-3-carboxylic acid [4-fluoro-2-methyl-5-(4-methyl-6-oxo-6H-pyridazin-1-yl)-phenyl]-amide], the negative logarithm of the IC50 (pIC50) stood at 7.455.

`Cc1cnn(-c2cc(NC(=O)C3=CN(C)C(=O)C[C@H]3c3ccc(F)cc3)c(C)cc2F)c(=O)c1` [Compound 145, (S)-4-(4-Fluoro-phenyl)-1-methyl-6-oxo-1,4,5,6-tetrahydro-pyridine-3-carboxylic acid [4-fluoro-2-methyl-5-(4-methyl-6-oxo-6H-pyridazin-1-yl)-phenyl]-amide] registered a pIC50 of 7.265.

`CN1C=C(C(=O)Nc2cc(-n3ncccc3=O)ccc2F)[C@H](c2ccc(F)cc2)CC1=O` [Compound 146, (S)-4-(4-Fluoro-phenyl)-1-methyl-6-oxo-1,4,5,6-tetrahydro-pyridine-3-carboxylic acid [2-fluoro-5-(6-oxo-6H-pyridazin-1-yl)-phenyl]-amide] registered a pIC50 of 5.74.

As for `Cc1cc(F)c(-c2cc(C)n(CCO)n2)cc1NC(=O)C1=CN(C)C(=O)C[C@H]1c1ccc(F)cc1` [Compound 148, (S)-4-(4-Fluoro-phenyl)-1-methyl-6-oxo-1,4,5,6-tetrahydro-pyridine-3-carboxylic acid {4-fluoro-5-[1-(2-hydroxy-ethyl)-5-methyl-1H-pyrazol-3-yl]-2-methyl-phenyl}-amide], the pIC50 is 7.41.

Usually pIC50 stands for the negative decadic logarithm of the IC50, by convention in mol/L. Lower therefore signals a large IC50.
